PubChem BioAssay (NCI)
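Dose response: 5 concentrations. Exposure: 48 h. Format: 96-well plates. Endpoint: linear interpolation; highest concentration if not reached. TGI marks complete inhibition of growth.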

Legend:
Test in all cases: inhibition of tumour cell growth, NCI panel, 48 h
SR leukemia = system: SR leukemia
SN12C renal = system: SN12C renal
MDA-N = system: MDA-N
NCI-H460 lung = system: NCI-H460 lung
COLO 205 colon = system: COLO 205 colon
MDA-MB-435 = system: MDA-MB-435
OVCAR-4 ovarian = system: OVCAR-4 ovarian
K-562 leukemia = system: K-562 leukemia
MOLT-4 leukemia = system: MOLT-4 leukemia
PC-3 prostate = system: PC-3 prostate
SK-MEL-5 melanoma = system: SK-MEL-5 melanoma
NCI-H226 lung = system: NCI-H226 lung
SW-620 colon = system: SW-620 colon
HT29 colon = system: HT29 colon
TK-10 renal = system: TK-10 renal
HCT-116 colon = system: HCT-116 colon
UO-31 renal = system: UO-31 renal
MDA-MB-231 breast = system: MDA-MB-231 breast
NCI-H522 lung = system: NCI-H522 lung
DU-145 prostate = system: DU-145 prostate
MCF7 breast = system: MCF7 breast
SK-MEL-2 melanoma = system: SK-MEL-2 melanoma
M14 melanoma = system: M14 melanoma
NCI-H23 lung = system: NCI-H23 lung
OVCAR-3 ovarian = system: OVCAR-3 ovarian
IGROV1 ovarian = system: IGROV1 ovarian
EKVX NSCLC = system: EKVX NSCLC
U251 CNS = system: U251 CNS
786-0 renal = system: 786-0 renal
ACHN renal = system: ACHN renal
SK-OV-3 ovarian = system: SK-OV-3 ovarian
SK-MEL-28 melanoma = system: SK-MEL-28 melanoma
RPMI-8226 leukemia = system: RPMI-8226 leukemia
BT-549 breast = system: BT-549 breast
LOX IMVI melanoma = system: LOX IMVI melanoma
SF-268 CNS = system: SF-268 CNS
HS 578T breast = system: HS 578T breast
A549 NSCLC = system: A549 NSCLC
OVCAR-5 ovarian = system: OVCAR-5 ovarian
UACC-257 melanoma = system: UACC-257 melanoma
SF-295 CNS = system: SF-295 CNS
CCRF-CEM leukemia = system: CCRF-CEM leukemia
CAKI-1 renal = system: CAKI-1 renal
HCT-15 colon = system: HCT-15 colon
OVCAR-8 ovarian = system: OVCAR-8 ovarian
HL-60(TB) leukemia = system: HL-60(TB) leukemia
T-47D breast = system: T-47D breast
KM12 colon = system: KM12 colon
SNB-19 CNS = system: SNB-19 CNS
MALME-3M melanoma = system: MALME-3M melanoma
UACC-62 melanoma = system: UACC-62 melanoma
RXF 393 renal = system: RXF 393 renal
SNB-75 CNS = system: SNB-75 CNS
HOP-62 NSCLC = system: HOP-62 NSCLC
NCI/ADR-RES ovarian = system: NCI/ADR-RES ovarian
HCC-2998 colon = system: HCC-2998 colon
HOP-92 NSCLC = system: HOP-92 NSCLC
SF-539 CNS = system: SF-539 CNS
A498 renal = system: A498 renal

CN(CCCCCl)P(=O)(OCC1=CC(=O)c2ccccc2C1=O)OC[C@H]1O[C@@H](n2cc(F)c(=O)[nH]c2=O)C[C@@H]1O (some centres undefined)
TGI (SR leukemia): 28.9 µM
TGI (SN12C renal): 1.21 µM
TGI (MDA-N): 2.19 µM
TGI (NCI-H460 lung): 7.9 µM
TGI (COLO 205 colon): > 26 µM
TGI (MDA-MB-435): 2.21 µM
TGI (OVCAR-4 ovarian): 14.9 µM
TGI (K-562 leukemia): 40.9 µM
TGI (MOLT-4 leukemia): 32.2 µM
TGI (PC-3 prostate): 18.8 µM
TGI (SK-MEL-5 melanoma): 0.647 µM
TGI (NCI-H226 lung): 21 µM
TGI (SW-620 colon): 23.1 µM
TGI (HT29 colon): 34.4 µM
TGI (TK-10 renal): 17.7 µM
TGI (HCT-116 colon): 13.5 µM
TGI (UO-31 renal): 15.9 µM
TGI (MDA-MB-231 breast): 19.3 µM
TGI (NCI-H522 lung): 10.9 µM
TGI (DU-145 prostate): 5.53 µM
TGI (MCF7 breast): 8.68 µM
TGI (SK-MEL-2 melanoma): 23.4 µM
TGI (M14 melanoma): 3.52 µM
TGI (NCI-H23 lung): 5.07 µM
TGI (OVCAR-3 ovarian): 12.8 µM
TGI (IGROV1 ovarian): 14.3 µM
TGI (EKVX NSCLC): 21.2 µM
TGI (U251 CNS): 18.4 µM
TGI (786-0 renal): 18.3 µM
TGI (ACHN renal): 14.7 µM
TGI (SK-OV-3 ovarian): > 42.8 µM
TGI (SK-MEL-28 melanoma): 23.8 µM
TGI (RPMI-8226 leukemia): 21.8 µM
TGI (BT-549 breast): 22.3 µM
TGI (LOX IMVI melanoma): 10.7 µM
TGI (SF-268 CNS): 12.6 µM
TGI (HS 578T breast): 0.603 µM
TGI (A549 NSCLC): 0.553 µM
TGI (OVCAR-5 ovarian): 25.2 µM
TGI (UACC-257 melanoma): 24 µM
TGI (SF-295 CNS): 0.452 µM
TGI (CCRF-CEM leukemia): 29.4 µM
TGI (CAKI-1 renal): 0.627 µM
TGI (HCT-15 colon): 20.3 µM
TGI (OVCAR-8 ovarian): 15.7 µM
TGI (HL-60(TB) leukemia): 16.5 µM
TGI (T-47D breast): 3.65 µM
TGI (KM12 colon): 22.3 µM
TGI (SNB-19 CNS): > 40.6 µM
TGI (MALME-3M melanoma): 2.79 µM
TGI (UACC-62 melanoma): 1.93 µM
TGI (RXF 393 renal): 2.78 µM
TGI (SNB-75 CNS): 0.418 µM
TGI (HOP-62 NSCLC): 22.6 µM

O=CN(CCN1CCCC1)C1CCc2cc(Cl)c(Cl)cc2C1 (centres undefined)
TGI (SR leukemia): 60.7 µM
TGI (SN12C renal): > 100 µM
TGI (MDA-N): 23.4 µM
TGI (NCI-H460 lung): 21.4 µM
TGI (COLO 205 colon): 37.8 µM
TGI (MDA-MB-435): 28.6 µM
TGI (OVCAR-4 ovarian): > 100 µM
TGI (K-562 leukemia): 51.6 µM
TGI (MOLT-4 leukemia): 55 µM
TGI (PC-3 prostate): 28.9 µM
TGI (SK-MEL-5 melanoma): 42 µM
TGI (SW-620 colon): > 100 µM
TGI (NCI/ADR-RES ovarian): 61.2 µM
TGI (HT29 colon): 18.2 µM
TGI (TK-10 renal): 34.8 µM
TGI (HCT-116 colon): 24.9 µM
TGI (UO-31 renal): 27.1 µM
TGI (MDA-MB-231 breast): 26.1 µM
TGI (NCI-H522 lung): 23 µM
TGI (DU-145 prostate): > 100 µM
TGI (M14 melanoma): 29.3 µM
TGI (NCI-H23 lung): 60 µM
TGI (OVCAR-3 ovarian): 30.6 µM
TGI (IGROV1 ovarian): 97.6 µM
TGI (EKVX NSCLC): > 100 µM
TGI (U251 CNS): 24.6 µM
TGI (786-0 renal): 19.9 µM
TGI (SK-OV-3 ovarian): 29 µM
TGI (RPMI-8226 leukemia): 45.3 µM
TGI (BT-549 breast): 27.7 µM
TGI (LOX IMVI melanoma): 27.3 µM
TGI (SF-268 CNS): > 100 µM
TGI (HCC-2998 colon): 31.2 µM
TGI (HS 578T breast): 42.3 µM
TGI (A549 NSCLC): 23.2 µM
TGI (OVCAR-5 ovarian): 40.7 µM
TGI (HOP-92 NSCLC): > 100 µM
TGI (UACC-257 melanoma): 30.5 µM
TGI (SF-295 CNS): 19 µM
TGI (CCRF-CEM leukemia): 43.9 µM
TGI (CAKI-1 renal): 53.8 µM
TGI (HCT-15 colon): 31.8 µM
TGI (OVCAR-8 ovarian): 48.6 µM
TGI (HL-60(TB) leukemia): 37.2 µM
TGI (T-47D breast): 41.3 µM
TGI (KM12 colon): 20.9 µM
TGI (SNB-19 CNS): 75 µM
TGI (SF-539 CNS): 48.2 µM
TGI (MALME-3M melanoma): 27.3 µM
TGI (RXF 393 renal): 28.8 µM
TGI (HOP-62 NSCLC): 34.9 µM

Cc1nn(C(=O)c2ccccc2O)c2c1C(c1ccc3ccccc3c1O)SC(N)=N2 (centres undefined)
TGI (SR leukemia): > 10 µM
TGI (SN12C renal): > 10 µM
TGI (MDA-N): > 10 µM
TGI (NCI-H460 lung): > 10 µM
TGI (COLO 205 colon): > 10 µM
TGI (MDA-MB-435): > 10 µM
TGI (OVCAR-4 ovarian): > 10 µM
TGI (K-562 leukemia): > 10 µM
TGI (MOLT-4 leukemia): > 10 µM
TGI (PC-3 prostate): > 10 µM
TGI (SK-MEL-5 melanoma): 4.76 µM
TGI (NCI-H226 lung): > 10 µM
TGI (SW-620 colon): > 10 µM
TGI (HT29 colon): > 10 µM
TGI (TK-10 renal): > 10 µM
TGI (HCT-116 colon): > 10 µM
TGI (UO-31 renal): > 10 µM
TGI (MDA-MB-231 breast): > 10 µM
TGI (MCF7 breast): 7.32 µM
TGI (SK-MEL-2 melanoma): > 10 µM
TGI (M14 melanoma): > 10 µM
TGI (NCI-H23 lung): > 10 µM
TGI (OVCAR-3 ovarian): 9.61 µM
TGI (IGROV1 ovarian): > 10 µM
TGI (EKVX NSCLC): > 10 µM
TGI (U251 CNS): > 10 µM
TGI (786-0 renal): > 10 µM
TGI (ACHN renal): > 10 µM
TGI (SK-OV-3 ovarian): > 10 µM
TGI (SK-MEL-28 melanoma): > 10 µM
TGI (RPMI-8226 leukemia): > 10 µM
TGI (A498 renal): > 10 µM
TGI (BT-549 breast): > 10 µM
TGI (LOX IMVI melanoma): > 10 µM
TGI (SF-268 CNS): > 10 µM
TGI (HS 578T breast): > 10 µM
TGI (A549 NSCLC): > 10 µM
TGI (OVCAR-5 ovarian): > 10 µM
TGI (HOP-92 NSCLC): 4.03 µM
TGI (UACC-257 melanoma): > 10 µM
TGI (SF-295 CNS): > 10 µM
TGI (CCRF-CEM leukemia): > 10 µM
TGI (CAKI-1 renal): > 10 µM
TGI (HCT-15 colon): > 10 µM
TGI (OVCAR-8 ovarian): > 10 µM
TGI (T-47D breast): 8.93 µM
TGI (KM12 colon): > 10 µM
TGI (SNB-19 CNS): > 10 µM
TGI (SF-539 CNS): > 10 µM
TGI (MALME-3M melanoma): > 10 µM
TGI (UACC-62 melanoma): 4.63 µM
TGI (RXF 393 renal): > 10 µM
TGI (SNB-75 CNS): > 10 µM
TGI (HOP-62 NSCLC): > 10 µM
